ChEMBL document CHEMBL5137032, “Design, synthesis of DNA-interactive 4-thiazolidinone-based indolo-/pyrroloazepinone conjugates as potential cytotoxic and topoisomerase I inhibitors” (Eur J Med Chem, 2022)
Activity calls are given as the source filed them. The calls are words filed in the database; no cut-off is given here.

How the values were obtained:
SK-MEL-28 [1] = assay: Anti-migration activity in human SK-MEL-28 cells assessed as distance travelled at 8.32 uM incubated for 48 hrs by wound healing assay based phase contrast microscopy; type: functional
SK-MEL-28 [2] = assay: Anti-migration activity in human SK-MEL-28 cells assessed as distance travelled at 2.08 uM incubated for 48 hrs by wound healing assay based phase contrast microscopy; type: functional
SK-MEL-28 [3] = assay: Induction of apoptosis in human SK-MEL-28 cells assessed as cell shrinkage at 2.08 to 8.32 uM incubated for 48 hrs by phase contrast microscopy; type: functional, cell-based; settings: dose 2.08-8.32 µM, DDE = dose-dependent effect
SK-MEL-28 [4] = assay: Induction of apoptosis in human SK-MEL-28 cells assessed as chromatin condensation at 2.08 to 8.32 uM incubated for 48 hrs by AO/EB staining based fluorescence microscopy; type: functional, cell-based; settings: dose 2.08-8.32 µM, DDE = dose-dependent effect
SK-MEL-28 [5] = assay: Induction of apoptosis in human SK-MEL-28 cells assessed as cell membrane disruption at 2.08 to 8.32 uM incubated for 48 hrs by phase contrast microscopy; type: functional, cell-based; settings: dose 2.08-8.32 µM, DDE = dose-dependent effect
SK-MEL-28 [6] = assay: Anti-migration activity in human SK-MEL-28 cells assessed as distance travelled at 8.32 uM by wound healing assay based phase contrast microscopy; type: functional
SK-MEL-28 [7] = assay: Induction of apoptosis in human SK-MEL-28 cells assessed as reduction on viable cells at 2.08 to 8.32 uM incubated for 48 hrs by phase contrast microscopy; type: functional, cell-based; settings: dose 2.08-8.32 µM, DDE = dose-dependent effect
DNA topoisomerase 1 = biological target: T1, DNA topoisomerase 1 (Homo sapiens, UniProt P11387); assay: Inhibition of human DNA topoisomerase 1 assessed as reduction in pBR322 DNA relaxation incubated for 1 hrs measured by agarose gel electrophoresis method
T1 sequence (P11387 whole entry): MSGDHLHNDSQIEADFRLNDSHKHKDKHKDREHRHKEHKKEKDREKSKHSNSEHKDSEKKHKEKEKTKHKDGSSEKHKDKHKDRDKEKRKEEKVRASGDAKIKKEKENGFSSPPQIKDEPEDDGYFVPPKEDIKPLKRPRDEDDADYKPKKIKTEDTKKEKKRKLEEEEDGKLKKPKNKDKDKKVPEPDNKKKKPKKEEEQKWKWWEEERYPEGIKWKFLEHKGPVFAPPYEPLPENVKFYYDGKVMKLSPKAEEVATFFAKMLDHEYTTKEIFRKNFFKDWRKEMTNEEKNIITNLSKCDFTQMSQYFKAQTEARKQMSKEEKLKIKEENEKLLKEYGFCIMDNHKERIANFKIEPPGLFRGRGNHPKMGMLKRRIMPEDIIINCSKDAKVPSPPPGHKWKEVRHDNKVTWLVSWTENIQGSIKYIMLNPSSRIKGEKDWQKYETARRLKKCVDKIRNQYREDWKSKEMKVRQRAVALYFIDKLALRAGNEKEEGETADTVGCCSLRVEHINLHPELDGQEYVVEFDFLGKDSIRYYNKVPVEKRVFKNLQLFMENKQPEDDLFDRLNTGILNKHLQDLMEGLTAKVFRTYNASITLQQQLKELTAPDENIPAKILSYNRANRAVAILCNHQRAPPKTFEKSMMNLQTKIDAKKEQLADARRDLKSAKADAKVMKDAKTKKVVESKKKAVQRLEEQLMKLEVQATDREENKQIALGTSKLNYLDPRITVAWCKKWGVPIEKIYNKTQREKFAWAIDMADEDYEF

SK-MEL-28 [8] = assay: Anti-migration activity in human SK-MEL-28 cells assessed as distance travelled at 4.16 uM incubated for 48 hrs by wound healing assay based phase contrast microscopy; type: functional
HCT-116 = assay: Cytotoxicity against human HCT-116 cells assessed as cell growth inhibition incubated for 48 hrs by MTT assay; type: functional, cell-based; settings: HCT-116, 48 h
SK-MEL-28 [9] = assay: Induction of apoptosis in human SK-MEL-28 cells assessed as nuclear fragmentation at 2.08 to 8.32 uM incubated for 48 hrs by DAPI staining based fluorescence microscopic analysis; type: functional, cell-based; settings: dose 2.08-8.32 µM
MCF7 = assay: Cytotoxicity against human MCF7 cells assessed as cell growth inhibition incubated for 48 hrs by MTT assay; type: functional, cell-based; settings: MCF7, 48 h
SK-MEL-28 [10] = assay: Induction of apoptosis in human SK-MEL-28 cells assessed as necrotic cells at 2.08 to 8.32 uM incubated for 48 hrs by Annexin V-FITC/propidium iodide staining based flow cytometric analysis; type: functional; settings: dose 2.08-8.32 µM
SK-MEL-28 [11] = assay: Inhibition of colony formation in human SK-MEL-28 cells assessed as decrease in colonies at 2.08 to 8.32 uM incubated for 7 days by crystal violet staining based assay; type: functional, cell-based; settings: dose 2.08-8.32 µM, time 7.0 day, DDE = dose-dependent effect
SK-MEL-28 [12] = assay: Inhibition of cell migration in human SK-MEL-28 cells at 2.08 to 8.32 uM incubated for 48 hrs by wound healing assay based phase contrast microscopy; type: functional; settings: dose 2.08-8.32 µM, DDE = dose-dependent effect
SK-MEL-28 [13] = assay: Induction of apoptosis in human SK-MEL-28 cells assessed as late apoptotic cells measured upto 4.16 uM incubated for 48 hrs by Annexin V-FITC/propidium iodide staining based flow cytometric analysis; type: functional, cell-based
SK-MEL-28 [14] = assay: Cytotoxicity against human SK-MEL-28 cells assessed as cell growth inhibition incubated for 48 hrs by MTT assay; type: functional, cell-based; settings: SK-MEL-28, 48 h
[15] = biological target: DNA topoisomerase 2-alpha (Homo sapiens) (UniProt P11388); assay: Inhibition of DNA topoisomerase 2 (unknown origin) assessed as reduction in decatenation using kDNA as substrate incubated for 30 mins measured by agarose gel electrophoresis method
[16] = biological target: T2, DNA topoisomerase 1 (Homo sapiens) (UniProt P11387); assay: Inhibition of DNA topoisomerase 1 (unknown origin) assessed as reduction in pBR322 DNA relaxation at 10 uM incubated for 30 mins measured by agarose gel electrophoresis method relative to control
T2 sequence (whole entry): T1 sequence (P11387 whole entry)

SK-MEL-28 [17] = assay: Anti-migration activity in human SK-MEL-28 cells assessed as distance travelled at 4.16 uM by wound healing assay based phase contrast microscopy; type: functional
SK-MEL-28 [18] = assay: Induction of apoptosis in human SK-MEL-28 cells assessed as apoptotic body fragmentation at 2.08 to 8.32 uM incubated for 48 hrs by AO/EB staining based fluorescence microscopy; type: functional, cell-based; settings: dose 2.08-8.32 µM, DDE = dose-dependent effect
SK-MEL-28 [19] = assay: Induction of apoptosis in human SK-MEL-28 cells assessed as membrane blebbing at 2.08 to 8.32 uM incubated for 48 hrs by AO/EB staining based fluorescence microscopy; type: functional, cell-based; settings: dose 2.08-8.32 µM, DDE = dose-dependent effect
Calf thymus DNA [20] = assay: Binding affinity to calf thymus DNA assessed as hyperchromicity at 10 to 20 uM by UV-Vis spectroscopic analysis; type: nucleic-acid assay; settings: Bos taurus; dose 10-20 µM
[21] = Cytotoxicity against rat NRK cells assessed as cell growth inhibition incubated for 48 hrs by MTT assay; type: toxicity, cell-based
SK-MEL-28 [22] = assay: Induction of apoptosis in human SK-MEL-28 cells assessed as changes in cell morphology at 2.08 to 8.32 uM incubated for 48 hrs by phase contrast microscopy; type: functional, cell-based; settings: dose 2.08-8.32 µM
Calf thymus DNA [23] = assay: Binding affinity to calf thymus DNA assessed as decrease in viscosity at 15 uM by ethidium bromide-Hoechst 33342 staining based analysis; type: nucleic-acid assay; settings: Bos taurus
SK-MEL-28 [24] = assay: Induction of apoptosis in human SK-MEL-28 cells assessed as chromatin condensation at 2.08 to 8.32 uM incubated for 48 hrs by DAPI staining based fluorescence microscopic analysis; type: functional, cell-based; settings: dose 2.08-8.32 µM
SK-MEL-28 [25] = assay: Induction of intracellular ROS generation in human SK-MEL-28 cells at 2.08 to 8.32 uM incubated for 48 hrs by […] fluorescence microscopic analysis; type: functional, cell-based; settings: dose 2.08-8.32 µM, DDE = dose-dependent effect
SK-MEL-28 [26] = assay: Anti-migration activity in human SK-MEL-28 cells assessed as distance travelled at 2.08 uM by wound healing assay based phase contrast microscopy; type: functional
Calf thymus DNA [27] = assay: Binding affinity to calf thymus DNA assessed as hyperchromicity at 10 uM by circular dichroism spectroscopy; type: nucleic-acid assay; settings: Bos taurus
A549 = assay: Cytotoxicity against human A549 cells assessed as cell growth inhibition incubated for 48 hrs by MTT assay; type: functional, cell-based; settings: A549, 48 h
SK-MEL-28 [28] = assay: Induction of apoptosis in human SK-MEL-28 cells assessed as cell shrinkage at 2.08 to 8.32 uM incubated for 48 hrs by AO/EB staining based fluorescence microscopy; type: functional; settings: dose 2.08-8.32 µM, DDE = dose-dependent effect
HT-29 = assay: Cytotoxicity against human HT-29 cells assessed as cell growth inhibition incubated for 48 hrs by MTT assay; type: functional, cell-based; settings: HT-29, 48 h
SK-MEL-28 [29] = assay: Induction of apoptosis in human SK-MEL-28 cells assessed as changes in nuclear morphology at 2.08 to 8.32 uM incubated for 48 hrs by DAPI staining based fluorescence microscopic analysis; type: functional, cell-based; settings: dose 2.08-8.32 µM

Chain of DNA topoisomerase 2-alpha (Homo sapiens) (P11388 whole entry): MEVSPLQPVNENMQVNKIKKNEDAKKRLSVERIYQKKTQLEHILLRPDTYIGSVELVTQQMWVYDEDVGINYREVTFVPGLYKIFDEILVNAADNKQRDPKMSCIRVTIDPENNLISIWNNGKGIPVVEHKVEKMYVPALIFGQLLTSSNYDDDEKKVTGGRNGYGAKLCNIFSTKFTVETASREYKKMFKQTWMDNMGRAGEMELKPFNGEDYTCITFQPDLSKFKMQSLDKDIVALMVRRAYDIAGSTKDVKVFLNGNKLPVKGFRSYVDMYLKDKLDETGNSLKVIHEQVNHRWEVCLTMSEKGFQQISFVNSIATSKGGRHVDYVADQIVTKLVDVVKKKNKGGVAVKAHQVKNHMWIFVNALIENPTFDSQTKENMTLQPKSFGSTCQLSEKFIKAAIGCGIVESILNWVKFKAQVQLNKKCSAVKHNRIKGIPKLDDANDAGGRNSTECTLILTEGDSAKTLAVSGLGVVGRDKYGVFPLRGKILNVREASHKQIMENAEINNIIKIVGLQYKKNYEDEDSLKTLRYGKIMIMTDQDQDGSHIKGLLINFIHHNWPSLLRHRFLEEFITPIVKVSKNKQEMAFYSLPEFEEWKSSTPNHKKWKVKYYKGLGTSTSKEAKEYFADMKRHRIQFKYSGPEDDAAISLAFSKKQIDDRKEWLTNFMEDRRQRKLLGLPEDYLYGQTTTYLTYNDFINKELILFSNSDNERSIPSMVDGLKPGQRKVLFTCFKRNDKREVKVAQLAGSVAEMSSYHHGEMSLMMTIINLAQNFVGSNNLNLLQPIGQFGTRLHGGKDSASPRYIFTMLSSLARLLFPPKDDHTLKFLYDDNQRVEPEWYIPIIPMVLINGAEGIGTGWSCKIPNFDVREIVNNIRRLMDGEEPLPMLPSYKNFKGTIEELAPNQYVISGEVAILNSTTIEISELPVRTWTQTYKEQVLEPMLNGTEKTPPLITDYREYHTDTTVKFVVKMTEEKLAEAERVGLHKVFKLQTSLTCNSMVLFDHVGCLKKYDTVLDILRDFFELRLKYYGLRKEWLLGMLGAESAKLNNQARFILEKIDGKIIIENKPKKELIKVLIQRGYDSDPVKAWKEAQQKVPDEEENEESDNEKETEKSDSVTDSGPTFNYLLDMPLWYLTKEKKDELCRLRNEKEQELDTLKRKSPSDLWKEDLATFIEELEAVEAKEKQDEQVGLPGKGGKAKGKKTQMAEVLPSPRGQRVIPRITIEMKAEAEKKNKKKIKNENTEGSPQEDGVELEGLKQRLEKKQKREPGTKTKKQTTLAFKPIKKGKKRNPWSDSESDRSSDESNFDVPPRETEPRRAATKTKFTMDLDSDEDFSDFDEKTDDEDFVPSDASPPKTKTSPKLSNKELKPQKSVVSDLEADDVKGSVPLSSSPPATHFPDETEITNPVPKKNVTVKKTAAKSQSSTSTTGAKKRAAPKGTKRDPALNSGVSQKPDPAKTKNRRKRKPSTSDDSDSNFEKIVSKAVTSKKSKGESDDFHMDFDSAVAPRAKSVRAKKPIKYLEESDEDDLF

IC50 (DNA topoisomerase 1): 34 µM
inhibition [15]: Active
inhibition [16]: 17%
Activity (Calf thymus DNA [20]): Active
Activity (Calf thymus DNA [23]): Active
Activity (Calf thymus DNA [27]): Active
Structure (SMILES): Cc1ccc(C/N=C2\NC(=O)/C(=C3\CCNC(=O)c4[nH]ccc43)S2)cc1
Activity (SK-MEL-28 [1]): 573.08 um
Activity (SK-MEL-28 [2]): 434.44 um
Activity (SK-MEL-28 [3]): Dde
Activity (SK-MEL-28 [4]): Dde
Activity (SK-MEL-28 [5]): Dde
Activity (SK-MEL-28 [6]): 798.09 um
Activity (SK-MEL-28 [7]): Dde
Activity (SK-MEL-28 [8]): 568.42 um
IC50 (HCT-116): 4.76 µM
Activity (SK-MEL-28 [9]): Active
IC50 (MCF7): 8.15 µM
Activity (SK-MEL-28 [10]): 4.84%
inhibition (SK-MEL-28 [11]): Dde
inhibition (SK-MEL-28 [12]): Dde
Activity (SK-MEL-28 [13]): Active
IC50 (SK-MEL-28 [14]): 4.15 µM
Activity (SK-MEL-28 [17]): 736.33 um
Activity (SK-MEL-28 [18]): Dde
Activity (SK-MEL-28 [19]): Dde
IC50 at 48 h [21]: 41.9 µM
Activity (SK-MEL-28 [22]): Active
Activity (SK-MEL-28 [24]): Active
Activity (SK-MEL-28 [25]): Dde
Activity (SK-MEL-28 [26]): 670 um
IC50 (A549): 9.08 µM
Activity (SK-MEL-28 [28]): Dde
IC50 (HT-29): 6.83 µM
Activity (SK-MEL-28 [29]): Active
